SMILES strings stand for the structures. pIC50: −log10 of the molar value.

What all share (type): cell-based
In test [1] the target is T1, human wildtype CFTR (Homo sapiens, UniProt P13569).
T1 construct: expressed in transfected cells; host or cells: Fischer rat thyroid (FRT) cells
The test can be described thus: Fluorescence platereader assay of CFTR-mediated iodide influx (YFP quenching) in FRT cells. In short, it runs like this:
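Fischer rat thyroid cells co-expressing human wildtype CFTR and the YFP-H148Q/1152L halide sensor were seeded at 20,000 cells per well in 96-well black-walled plates and assayed 48 h later at confluence. After PBS washes and a 15 min incubation, CFTR was maximally activated with an agonist mixture. Fluorescence was recorded for 2 s before and 10 s after adding 160 μL iodide-substituted PBS, and iodide influx rates came from non-linear regression.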

Test [2] relates to calcium-activated chloride channels. The test can be described thus: UTP-induced chloride currents in cystic fibrosis (CFTR-deficient) human bronchial epithelial cells. To be noted: 10 or 20 μM; UTP 100 μM. As to the method:
FIG. 3A: Apical membrane current measured in CFTR-expressing FRT cells in the presence of a transepithelial chloride gradient and with amphotericin B permeabilization of the basolateral membrane. CFTR was activated by CPT-cAMP (chlorophenylthio-cAMP) (100 μM), with increasing concentrations of PPQ-102 added as shown. Left: Original recording. Right: Dose-response (S.E. n=4). FIG. 3B: Measurements as in FIG. 3A, but with apigenin (100 μM) or IBMX (100 μM) as agonists. The data are representative of 3 sets of experiments. FIG. 3C: Short-circuit current measured in T84 (left) and human bronchial airway epithelial cells (right). CFTR was maximally activated by 10 μM forskolin and 100 μM IBMX (‘forsk’). Current in the absence of inhibitor is indicated as ‘control.’ FIG. 3D: Calcium-activated chloride channels were activated by UTP (100 μM) in cystic fibrosis (CFTR-deficient) human bronchial epithelial cells, with PPQ-102 added as indicated. ENaC (epithelial sodium channel) was inhibited by amiloride (10 μM). FIG. 3E: Cellular cAMP assayed in CHO—K1 cells under basal conditions and after addition of 20 μM forskolin (S.E. n=4, differences with PPQ-102, not significant).

The target of test [3] is T1, human wildtype CFTR. The test can be described thus: Whole-cell patch-clamp in CFTR-expressing FRT cells. To be noted: 0.5 μM; voltage-independent block. As to the method: D. Patch-Clamp Analysis—Whole cell recordings were performed using FRT cells stably expressing human wildtype CFTR. The pipette solution contained 140 mM N-methyl D-glucamine chloride (NMDG-Cl), 5 mM EGTA, 1 mM MgCl2, 1 mM Tris-ATP, and 10 mM HEPES (pH 7.2), and the bath solution contained 140 mM N-methyl D-glucamine chloride, 1 mM CaCl2, 1 mM MgCl2, 10 mM glucose and 10 mM HEPES (pH 7.4). Experiments were performed at room temperature (22-25° C.). Pipettes were pulled from borosilicate glass and had resistances of 3-5 Mohm after fire polishing. […] After establishing the whole-cell configuration, CFTR was activated by adding forskolin and 3-isobutyl-1-methylxanthine (IBMX). Whole cell currents were elicited by applying hyperpolarizing and depolarizing voltage pulses from a holding potential of 0 mV to potentials between −100 mV and +100 mV in steps of 20 mV. Current was filtered at 5 kHz and digitized and analyzed using an AxoScope 10.0 system and a Digidata® 1440A AC/DC converter (Molecular Devices, Sunnyvale, Calif.). The single channel characteristics of CFTR were analyzed in the cell-attached configuration using fire-polished pipettes with a resistance of 10-15 Mohm. […] Single channel data were digitally filtered at 25 Hz, and analyzed using Clampfit 10.0 software (Axon Instruments).
Background: Patch clamp records ionic current or voltage across a cell membrane.

In test [4] the target is T1, human wildtype CFTR. The test is described as follows: Single-channel cell-attached patch recordings of CFTR. The settings on record: 1 μM. As to the method:
D. Patch-Clamp Analysis—Whole cell recordings were performed using FRT cells stably expressing human wildtype CFTR. The pipette solution contained 140 mM N-methyl D-glucamine chloride (NMDG-Cl), 5 mM EGTA, 1 mM MgCl2, 1 mM Tris-ATP, and 10 mM HEPES (pH 7.2), and the bath solution contained 140 mM N-methyl D-glucamine chloride, 1 mM CaCl2, 1 mM MgCl2, 10 mM glucose and 10 mM HEPES (pH 7.4). Experiments were performed at room temperature (22-25° C.). Pipettes were pulled from borosilicate glass and had resistances of 3-5 Mohm after fire polishing. […] After establishing the whole-cell configuration, CFTR was activated by adding forskolin and 3-isobutyl-1-methylxanthine (IBMX). Whole cell currents were elicited by applying hyperpolarizing and depolarizing voltage pulses from a holding potential of 0 mV to potentials between −100 mV and +100 mV in steps of 20 mV. Current was filtered at 5 kHz and digitized and analyzed using an AxoScope 10.0 system and a Digidata® 1440A AC/DC converter (Molecular Devices, Sunnyvale, Calif.). The single channel characteristics of CFTR were analyzed in the cell-attached configuration using fire-polished pipettes with a resistance of 10-15 Mohm. The pipette solution contained (in mM): 140 NMDG-Cl, 1 CaCl2, 1 MgCl2, 5 glucose and 10 HEPES (pH 7.4), and the bath solution contained 140 KCl, 1 CaCl2, 1 MgCl2, 5 glucose and 10 HEPES (pH 7.4). Recordings were performed at room temperature using an Axopatch-200B (Axon Instruments, Foster City, Calif.). The voltage and current data were low-pass filtered at 1 kHz and stored for later analysis. Single channel data were digitally filtered at 25 Hz, and analyzed using Clampfit 10.0 software (Axon Instruments).
Cell-attached patch recordings were performed to examine single-channel CFTR function.

T1 sequence (P13569 whole entry): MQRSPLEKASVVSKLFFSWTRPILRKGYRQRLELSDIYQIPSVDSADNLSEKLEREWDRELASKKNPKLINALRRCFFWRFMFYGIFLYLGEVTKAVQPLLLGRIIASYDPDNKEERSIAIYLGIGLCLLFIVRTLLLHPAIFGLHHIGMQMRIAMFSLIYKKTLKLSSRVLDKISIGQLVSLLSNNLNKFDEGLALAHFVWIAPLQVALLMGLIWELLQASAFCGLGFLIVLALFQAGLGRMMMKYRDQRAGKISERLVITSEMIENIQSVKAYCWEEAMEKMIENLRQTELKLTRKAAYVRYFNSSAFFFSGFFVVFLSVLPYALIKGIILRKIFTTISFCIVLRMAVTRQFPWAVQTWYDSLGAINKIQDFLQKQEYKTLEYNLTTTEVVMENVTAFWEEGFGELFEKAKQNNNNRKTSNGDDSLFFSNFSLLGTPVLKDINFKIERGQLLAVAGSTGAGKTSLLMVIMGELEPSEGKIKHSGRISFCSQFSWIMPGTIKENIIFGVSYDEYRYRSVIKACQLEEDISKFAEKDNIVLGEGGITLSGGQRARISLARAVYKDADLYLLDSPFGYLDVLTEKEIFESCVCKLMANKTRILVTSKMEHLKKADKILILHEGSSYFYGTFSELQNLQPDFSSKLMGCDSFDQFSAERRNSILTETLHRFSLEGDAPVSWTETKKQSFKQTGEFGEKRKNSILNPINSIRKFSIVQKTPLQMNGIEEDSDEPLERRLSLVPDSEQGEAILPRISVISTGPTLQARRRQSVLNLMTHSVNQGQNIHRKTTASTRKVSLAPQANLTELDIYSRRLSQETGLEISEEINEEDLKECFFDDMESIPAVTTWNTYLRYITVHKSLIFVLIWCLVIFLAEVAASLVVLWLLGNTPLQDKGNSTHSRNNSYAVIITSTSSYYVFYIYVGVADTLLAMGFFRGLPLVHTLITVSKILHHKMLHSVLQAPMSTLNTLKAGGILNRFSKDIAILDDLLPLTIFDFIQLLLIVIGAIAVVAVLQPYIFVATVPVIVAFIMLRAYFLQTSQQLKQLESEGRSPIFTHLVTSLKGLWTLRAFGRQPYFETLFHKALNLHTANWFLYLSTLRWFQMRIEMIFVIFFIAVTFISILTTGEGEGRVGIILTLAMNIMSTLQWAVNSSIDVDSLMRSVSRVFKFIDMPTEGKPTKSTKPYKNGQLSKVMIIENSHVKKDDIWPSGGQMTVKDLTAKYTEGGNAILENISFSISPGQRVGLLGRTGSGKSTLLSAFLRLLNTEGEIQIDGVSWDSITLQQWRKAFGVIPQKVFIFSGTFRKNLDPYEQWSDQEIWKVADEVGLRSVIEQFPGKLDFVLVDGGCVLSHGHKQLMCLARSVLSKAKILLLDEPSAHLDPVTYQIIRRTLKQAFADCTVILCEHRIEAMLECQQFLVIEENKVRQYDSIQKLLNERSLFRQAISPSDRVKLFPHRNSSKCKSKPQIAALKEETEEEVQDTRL

The inhibition is how much of the control response was suppressed. The pIC50 is the negative decadic logarithm of the IC50, by convention in mol/L. With `Cc1ccc(C2Nc3ccccc3-n3c(-c4ccccc4)c4c(=O)n(C)c(=O)n(C)c4c32)o1` (racemic) [PPQ-102, 7,9-Dimethyl-11-phenyl-6-(5-methylfuran-2-yl)-5,6-dihydro-pyrimido[4′,5′-3,4]pyrrolo[1,2-a]quinoxaline-8,10-(7H,9H)-dione], the inhibition at 5 µM at human wildtype CFTR [1] (FRT, Table 2, screening, 5 μM, read-out: % Inhibition at 5 μM) is 85%. Further, on human wildtype CFTR [1] (FRT, Table 2, screening, 25 μM, read-out: % Inhibition at 25 μM), the inhibition at 25 µM was found to be 97%. In addition, the negative-log IC50 (pIC50) at human wildtype CFTR [1] (apparent IC50 from concentration-inhibition data, fluorescence platereader assay) was 6.10. Besides, the “inhibition of UTP-induced chloride currents” value in test [2] is “little inhibition”. Also, the “CFTR current-voltage relationship after addition” value on human wildtype CFTR [3] is reported as “remained linear”. At human wildtype CFTR [4], the “Mean channel open time” value is on record as “did not significantly change” and the “mean channel closed time” value is given as “greatly increased”. Further, the “Channel open probability (Po)” value at human wildtype CFTR [4] (control 0.50±0.04, forskolin and IBMX, +80 mV) amounted to 0.14±0.03. Besides, the unitary conductance result at human wildtype CFTR [4] (control 7 pS at +80 mV) is reported as “did not change”.

Source of the values: patent US8609661B2, “Pyrimido-pyrrolo-quinoxalinedione inhibitors of cystic fibrosis transmembrane conductance regulator protein and uses therefor” (The Regents of the University of California, priority 2009, dated 2013).
